Earlier results, collected in patent US20040258731A1, “Preparation approriate for cartilage tissue formation” (priority 2001, published 2004).

Assays:
articular cartilage [1] = system: articular cartilage
articular cartilage [2] = details: experimental arthritis model animals, intraarticular administration

Substance	synovitis (articular cartilage [1]; in vivo)	arthritis-induced loss of proteoglycans in articular cartilage (articular cartilage [2])	chondrogenesis (articular cartilage [1]; intraarticularly administered)
TGF-β	marked synovitis		
TGF-β1: an isoform of TGF-β (Transforming Growth Factor β)		suppresses arthritis-induced loss of proteoglycans in articular cartilage	promote chondrogenesis
